Measurements from ChEMBL document CHEMBL1201862, “PubChem BioAssay data set” (2004).
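In this assay, cells in 96-well plates receive the compound at five concentrations for 48 hours. Endpoints are linearly interpolated between the surrounding concentrations. GI50 is the concentration that inhibits growth by half.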 Calls of active or inactive are those of the source. Cut-off read from the data, not from the text of the source: active = GI50 up to about 1.1 µM and inactive = higher.

Key:
Assay in all cases: DTP human tumour cell line panel, 48 h
ACHN = tested on: ACHN
HCT-116 = tested on: HCT-116
HL-60 = tested on: HL-60
HT-29 = tested on: HT-29
M14 = tested on: M14
MOLT-4 = tested on: MOLT-4
Malme-3M = tested on: Malme-3M
NCI-H522 = tested on: NCI-H522
OVCAR-4 = tested on: OVCAR-4
OVCAR-5 = tested on: OVCAR-5
OVCAR-8 = tested on: OVCAR-8
RPMI-8226 = tested on: RPMI-8226
SF-539 = tested on: SF-539
SK-MEL-2 = tested on: SK-MEL-2
SNB-75 = tested on: SNB-75
TK-10 = tested on: TK-10
U-251 = tested on: U-251
UO-31 = tested on: UO-31
SW-620 = tested on: SW-620

Measured: GI50

O=C(CSc1nnc(Cc2ccccc2)o1)Nc1ccccc1
inactive: ACHN > 100 µM | HCT-116 > 100 µM | HL-60 > 100 µM | HT-29 > 100 µM | M14 > 100 µM | MOLT-4 > 100 µM | Malme-3M > 100 µM | NCI-H522 > 100 µM | OVCAR-4 > 100 µM | OVCAR-5 > 100 µM | OVCAR-8 > 100 µM | RPMI-8226 > 100 µM | SF-539 > 100 µM | SK-MEL-2 > 100 µM | SNB-75 > 100 µM | TK-10 > 100 µM | U-251 > 100 µM | UO-31 > 100 µM

O=C1Cc2ccccc2CCc2ccccc21
inactive: ACHN > 100 µM | HCT-116 > 100 µM | HL-60 > 100 µM | HT-29 > 100 µM | M14 > 100 µM | MOLT-4 > 100 µM | Malme-3M 44.7 µM | NCI-H522 68.9 µM | OVCAR-4 > 100 µM | OVCAR-5 > 100 µM | OVCAR-8 > 100 µM | RPMI-8226 82.4 µM | SF-539 > 100 µM | SK-MEL-2 64.1 µM | SNB-75 81.8 µM | SW-620 > 100 µM | TK-10 > 100 µM | U-251 > 100 µM | UO-31 45.4 µM

CC1=NN(c2ccccc2)C(=O)/C1=C\c1ccc([N+](=O)[O-])cc1
inactive: ACHN 31.5 µM | HL-60 23.3 µM | HT-29 28.3 µM | M14 30.8 µM | MOLT-4 21.5 µM | Malme-3M 23.9 µM | NCI-H522 21.8 µM | OVCAR-4 19.3 µM | OVCAR-5 24.5 µM | OVCAR-8 31.2 µM | RPMI-8226 23.6 µM | SF-539 22.4 µM | SK-MEL-2 21.9 µM | SNB-75 25.5 µM | SW-620 30.3 µM | TK-10 48.8 µM | U-251 41.3 µM | UO-31 32.3 µM

O=[N+]([O-])c1ccc(-c2ccc(C3=Nn4c(nnc4-c4ccc(Cl)cc4)SC3)o2)cc1
inactive: ACHN 46.6 µM | HCT-116 45 µM | HL-60 > 59 µM | HT-29 > 100 µM | M14 > 100 µM | MOLT-4 > 100 µM | Malme-3M > 52.5 µM | NCI-H522 > 89.3 µM | OVCAR-4 > 100 µM | OVCAR-5 > 100 µM | OVCAR-8 > 92 µM | RPMI-8226 > 100 µM | SF-539 > 100 µM | SK-MEL-2 99.3 µM | SNB-75 25.4 µM | SW-620 > 100 µM | TK-10 23.4 µM | U-251 37.1 µM | UO-31 > 100 µM

NC(=O)CCC(NC(=O)Cc1ccccc1)C(=O)O (stereo not given)
inactive: HCT-116 1090 µM | HL-60 > 2470 µM | HT-29 > 2470 µM | M14 > 2470 µM | MOLT-4 > 2470 µM | Malme-3M 1530 µM | NCI-H522 841 µM | OVCAR-4 1390 µM | OVCAR-5 > 2470 µM | OVCAR-8 > 2470 µM | RPMI-8226 1030 µM | SF-539 1420 µM | SK-MEL-2 > 2470 µM | SNB-75 724 µM | SW-620 > 2470 µM | TK-10 2120 µM | U-251 2000 µM | UO-31 667 µM

CCOC(=O)C1=C(O)C(=O)c2c(OC)ccc(OC)c2C1=O
inactive: ACHN > 100 µM | HCT-116 > 100 µM | HL-60 > 100 µM | HT-29 > 100 µM | M14 > 100 µM | MOLT-4 > 100 µM | Malme-3M > 100 µM | NCI-H522 > 100 µM | OVCAR-4 > 100 µM | OVCAR-5 > 100 µM | OVCAR-8 > 100 µM | RPMI-8226 > 100 µM | SF-539 > 100 µM | SK-MEL-2 > 100 µM | SNB-75 82.6 µM | SW-620 > 100 µM | TK-10 > 100 µM | U-251 > 100 µM | UO-31 > 100 µM

CC1=C(NC(=O)/C(=N/NC(=S)NN)C2C(=O)CC(C)(C)CC2=O)C(=O)c2ccccc2C1=O
inactive: ACHN 13.3 µM | HCT-116 3.97 µM | HL-60 3.41 µM | HT-29 11.1 µM | M14 6.47 µM | MOLT-4 4.07 µM | Malme-3M 16 µM | NCI-H522 2.85 µM | OVCAR-4 13.7 µM | OVCAR-5 22.4 µM | OVCAR-8 4.55 µM | RPMI-8226 10.6 µM | SF-539 3.6 µM | SK-MEL-2 6.14 µM | SNB-75 21.6 µM | SW-620 8.49 µM | TK-10 16.1 µM | U-251 3.91 µM | UO-31 12.8 µM

Oc1ccc(-c2c3ccccc3c(-c3ccc(O)cc3)c3ccccc23)cc1
inactive: ACHN 89.9 µM | HCT-116 87.5 µM | HL-60 > 100 µM | HT-29 > 100 µM | M14 > 100 µM | MOLT-4 > 100 µM | Malme-3M > 100 µM | NCI-H522 > 100 µM | OVCAR-4 > 100 µM | OVCAR-5 > 100 µM | OVCAR-8 > 100 µM | RPMI-8226 75.2 µM | SF-539 > 100 µM | SK-MEL-2 > 100 µM | SNB-75 39.8 µM | SW-620 > 100 µM | TK-10 > 100 µM | U-251 > 100 µM | UO-31 > 100 µM

CC(=O)CC(N)=O
inactive: ACHN > 100 µM | HCT-116 > 100 µM | HL-60 > 100 µM | HT-29 > 100 µM | M14 > 100 µM | MOLT-4 > 100 µM | Malme-3M > 100 µM | NCI-H522 > 100 µM | OVCAR-4 > 100 µM | OVCAR-5 > 100 µM | OVCAR-8 > 100 µM | RPMI-8226 > 100 µM | SF-539 > 100 µM | SK-MEL-2 > 100 µM | SNB-75 > 100 µM | SW-620 > 100 µM | TK-10 > 100 µM | U-251 > 100 µM | UO-31 > 100 µM

O=C1Oc2cc3c(c4cccc1c24)OCN(c1ccccc1)C3
inactive: ACHN > 100 µM | HCT-116 > 100 µM | HL-60 43.5 µM | HT-29 > 100 µM | M14 > 100 µM | MOLT-4 > 100 µM | Malme-3M > 100 µM | NCI-H522 26.2 µM | OVCAR-4 > 100 µM | OVCAR-5 > 100 µM | OVCAR-8 > 100 µM | RPMI-8226 35.1 µM | SK-MEL-2 > 100 µM | SNB-75 > 100 µM | SW-620 83.9 µM | TK-10 > 100 µM | U-251 > 100 µM | UO-31 > 100 µM

Cc1ccc(/C=C/C(=O)c2sc(-c3nc(C)c(C(=O)/C=C/c4ccc(C)cc4)s3)nc2C)cc1
inactive: ACHN > 100 µM | HL-60 > 100 µM | HT-29 > 100 µM | MOLT-4 > 100 µM | Malme-3M > 100 µM | NCI-H522 97.5 µM | OVCAR-5 > 100 µM | OVCAR-8 > 100 µM | RPMI-8226 > 100 µM | SF-539 > 100 µM | SK-MEL-2 > 100 µM | SNB-75 86.5 µM | SW-620 > 100 µM | TK-10 > 100 µM | U-251 > 100 µM | UO-31 > 100 µM

COC1C2c3ccccc3C(C#N)(Cc3ccc4c(c32)OCO4)N1C(=O)c1ccccc1 (stereo not given)
inactive: ACHN 41.4 µM | HCT-116 37.6 µM | HL-60 8.57 µM | HT-29 48 µM | M14 26.6 µM | MOLT-4 30.1 µM | Malme-3M 37.8 µM | NCI-H522 10.5 µM | OVCAR-5 > 100 µM | OVCAR-8 84.9 µM | RPMI-8226 16.3 µM | SF-539 > 100 µM | SK-MEL-2 46.8 µM | SNB-75 50.6 µM | SW-620 32.8 µM | TK-10 > 100 µM | U-251 37.7 µM | UO-31 31.7 µM

CN(CCO)c1nc(N)cc(=O)[nH]1
inactive: ACHN > 100 µM | HCT-116 > 100 µM | HL-60 > 100 µM | HT-29 > 100 µM | M14 > 100 µM | MOLT-4 > 100 µM | Malme-3M > 100 µM | NCI-H522 > 100 µM | OVCAR-5 > 100 µM | OVCAR-8 > 100 µM | RPMI-8226 > 100 µM | SF-539 > 100 µM | SK-MEL-2 > 100 µM | SNB-75 38.7 µM | SW-620 > 100 µM | TK-10 > 100 µM | U-251 > 100 µM | UO-31 > 100 µM

NNC(=O)CCC(=O)Nc1cc(Cl)c(Cl)cc1Cl
inactive: ACHN > 100 µM | HCT-116 > 100 µM | HL-60 > 100 µM | HT-29 > 100 µM | M14 > 100 µM | MOLT-4 90.6 µM | Malme-3M > 100 µM | NCI-H522 > 100 µM | OVCAR-4 51.5 µM | OVCAR-5 > 100 µM | OVCAR-8 > 100 µM | RPMI-8226 > 100 µM | SF-539 > 100 µM | SK-MEL-2 > 100 µM | SNB-75 95.1 µM | SW-620 > 100 µM | TK-10 > 100 µM | U-251 > 100 µM | UO-31 > 100 µM

O=C1C(c2ccc(Cl)cc2)=[N+]([O-])c2ccccc21
inactive: ACHN 15.2 µM | HCT-116 14.4 µM | HL-60 3.3 µM | HT-29 19.8 µM | M14 14.2 µM | MOLT-4 12.4 µM | Malme-3M 17.8 µM | NCI-H522 10 µM | OVCAR-5 22.9 µM | OVCAR-8 10.7 µM | RPMI-8226 14.9 µM | SF-539 21 µM | SK-MEL-2 23.1 µM | SNB-75 21.4 µM | SW-620 39.7 µM | TK-10 16.3 µM | U-251 16.7 µM | UO-31 > 100 µM
